In patent US12528773B2, “Non-lysosomal glucosylceramidase inhibitors and uses thereof” (ALECTOS THERAPEUTICS INC., priority 2020, dated 2026):
Blank lines part the entries; values can stand above or below the compound they belong to.

Columns and labels:
Format in all cases: biochemical
GBA2 [1] = target: T1, GBA2 (Homo sapiens (Human), UniProt Q9HCG7); assay: Inhibition of GBA2 in cell lysate (4-methylumbelliferone glucopyranoside substrate); conditions: HEK293T-overexpressing GBA2 cellular homogenate, pH 5.5; read-out: GBA2 IC50;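 note: homogenate of stably transfected HEK293T cells pre-treated with a GCase inhibitor, test compound preincubated 5 min at 37 °C, substrate reaction 20 min at 37 °C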
[2] = test system: rat intestinal alpha-glucosidases; assay: Inhibition of rat intestinal alpha-glucosidases (rat intestinal lysate, glucose detection); conditions: compound concentration 25 μM, sucrose as substrate
Method: Assay for Determination of Inhibition of Rat Intestinal Alpha-Glucosidases
Various concentrations of test compounds were prepared in DMSO and then diluted into buffer consisting of 100 mM citric acid, 200 mM disodium phosphate, pH 6.0. Rat intestinal acetone powder (Sigma) was dissolved to 12.5 mg/mL in assay buffer and sonicated in an ice bath, centrifuged, and the supernatant was collected, aliquoted and stored at −20° C. until use. On the day of the assay, the rat intestinal lysate was diluted to 6.25 mg/mL (sucrose reactions) and 2.1 mg/ml (maltose reactions) in assay buffer. The final reaction solutions for sucrose contained 2.1 mg/mL rat intestinal lysate, 40 mM sucrose, 50 or 25 μM of test compound, and 3.3% DMSO. The final reaction solution for maltose contained 0.69 mg/mL rat intestinal lysate, 10 mM maltose, 50 or 25 μM of test compound, and 3.3% DMSO. The reaction was initiated by the addition of substrate (sucrose or maltose) and allowed to proceed at 37° C. for 20 min to assess rat intestinal alpha-glycosidase activities. The reaction was stopped by addition of 20 μL of 2 M Tris-HCl, pH 7.0. The glucose produced during the reaction was detected using a commercial Amplex Red glucose detection kit from Thermo Fisher. For a full plate, the Amplex Red detection mixture was prepared by mixing 35 μL glucose oxidase, 35 μL horseradish peroxidase and 35 μL Amplex Red into 3395 μL 1× Amplex Red detection buffer. A total of 30 μL of detection mixture was added to each well. Fluorescence was measured in kinetic mode on a Biotek Synergy H4 plate reader at a wavelength of 573 nm for excitation and 610 nm for emission for 15 min and quantified from the data at 10 min. Incubations without added rat intestinal lysate were used to correct for the background amount of glucose present in the samples. Incubations without added test compound were used to define maximal enzyme activity. Percent inhibition of rat intestinal alpha-glucosidases was determined by dividing the amount of glucose detected in the presence of test compound by the amount of glucose detected in the maximal enzyme activity wells. All conditions were analyzed in triplicate. […] The final reaction solutions were the same as described above for the Amplex Red Detection kit. After a 20 min reaction time at 37° C., 100 μL of hexokinase glucose reagent was added to all test wells except for the no enzyme added control wells and no test compound added wells. The plate was incubated for a further 15 min at room temperature and the absorbance was read at 340 nm on a Biotek Synergy H4 plate reader. The percent inhibition of rat intestinal alpha-glucosidases was determined in a similar manner as described above.

GBA2 [3] = target: T1, GBA2; assay: Binding specificity for GBA2 over other molecules, Ki or IC50 ratio
Source text: In some embodiments, one or more of the compounds according to the invention may specifically bind a GBA2. In alternative embodiments, one or more of the compounds according to the invention may specifically bind the active site of a GBA2. […] In alternative embodiments, one or more of the compounds according to the invention may specifically bind the human non-lysosomal glucosylceramidase (GBA2) over the human lysosomal glucosylceramidase (GCase) and/or the human cytosolic glucosylceramidase (GBA3). In alternative embodiments, one or more of the compounds according to the invention may specifically bind the human non-lysosomal glucosylceramidase (GBA2) over the human glucosylceramide synthase (GCS). In alternative embodiments, one or more of the compounds according to the invention may specifically bind the human non-lysosomal glucosylceramidase (GBA2) over an intestinal alpha-glucosidase, where the intestinal alpha-glucosidase may be a sucrase-isomaltase or a maltase-glucoamylase.

T1 sequence (Q9HCG7 whole entry): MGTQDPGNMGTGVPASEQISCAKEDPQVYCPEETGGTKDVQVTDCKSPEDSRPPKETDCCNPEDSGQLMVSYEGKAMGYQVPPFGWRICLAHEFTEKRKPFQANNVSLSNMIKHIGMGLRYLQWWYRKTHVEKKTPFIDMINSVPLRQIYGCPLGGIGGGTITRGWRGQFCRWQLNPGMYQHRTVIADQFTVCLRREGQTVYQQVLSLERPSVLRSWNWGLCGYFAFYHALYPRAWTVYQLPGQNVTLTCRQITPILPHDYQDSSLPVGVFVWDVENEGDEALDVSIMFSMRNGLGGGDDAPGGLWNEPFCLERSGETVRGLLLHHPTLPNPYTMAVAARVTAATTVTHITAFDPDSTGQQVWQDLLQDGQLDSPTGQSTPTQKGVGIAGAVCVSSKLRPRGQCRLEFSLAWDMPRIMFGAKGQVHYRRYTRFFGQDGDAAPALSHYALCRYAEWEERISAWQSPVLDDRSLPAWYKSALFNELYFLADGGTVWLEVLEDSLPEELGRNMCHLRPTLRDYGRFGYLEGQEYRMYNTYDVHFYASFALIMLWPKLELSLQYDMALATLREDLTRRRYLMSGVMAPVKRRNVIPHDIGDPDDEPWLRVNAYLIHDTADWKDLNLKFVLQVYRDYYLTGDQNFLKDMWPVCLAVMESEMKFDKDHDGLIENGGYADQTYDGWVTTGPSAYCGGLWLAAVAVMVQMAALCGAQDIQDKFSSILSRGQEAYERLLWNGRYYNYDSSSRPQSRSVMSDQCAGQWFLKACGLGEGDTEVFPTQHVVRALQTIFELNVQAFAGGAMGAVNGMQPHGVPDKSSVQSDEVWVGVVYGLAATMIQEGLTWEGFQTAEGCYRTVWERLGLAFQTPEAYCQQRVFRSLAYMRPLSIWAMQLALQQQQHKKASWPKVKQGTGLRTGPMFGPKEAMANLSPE

Compound: CCCCOc1ccc(CN2C[C@@H](O)[C@H](O)[C@@H](O)C2)cc1 [Example 197, (3S,4r,5R)-1-(4-butoxybenzyl)piperidine-3,4,5-triol]
IC50 (GBA2 [1]): < 0.1 µM
rat α-glu. (% inhib.) [2]: 5%

Compound: CC(CCc1cccc(Cl)c1F)N1C[C@@H](O)[C@H](O)[C@@H](O)C1 (stereo partly drawn) [Example 17, (3S,4r,5R)-1-(4-(3-chloro-2-fluorophenyl)butan-2-yl)piperidine-3,4,5-triol]
IC50 (GBA2 [1]): 0.1 to 1 µM
rat α-glu. (% inhib.) [2]: 0%

Compound: O[C@H]1[C@H](O)CN(Cc2cccs2)C[C@@H]1O [Example 205, (3S,4r,5R)-1-(thiophen-2-ylmethyl)piperidine-3,4,5-triol]
IC50 (GBA2 [1]): 1 to 25 µM
rat α-glu. (% inhib.) [2]: 4%

Compound: O[C@H]1[C@H](O)CN(C[C@H]2CCCN(c3ccnc(C(F)(F)F)c3)C2)C[C@@H]1O [Example 173, (3S,4R,5R)-1-(((R)-1-(2-(trifluoromethyl)pyridin-4-yl)piperidin-3-yl)methyl)piperidine-3,4,5-triol]
IC50 (GBA2 [1]): < 0.1 µM
rat α-glu. (% inhib.) [2]: 3%

Compound: O[C@H]1[C@H](O)CN(C[C@@H]2CCCN(c3cccc(C(F)(F)F)n3)C2)C[C@@H]1O [Example 37, (3S,4S,5R)-1-(((S)-1-(6-(trifluoromethyl)pyridin-2-yl)piperidin-3-yl)methyl)piperidine-3,4,5-triol]
IC50 (GBA2 [1]): 0.1 to 1 µM
rat α-glu. (% inhib.) [2]: 0%

Second part, led by results:

IC50 (GBA2 [1]): < 0.1 µM
binding specificity, IC50(other molecule)/IC50(GBA2) or Ki ratio (GBA2 [3]): enhanced binding specificity
Compound: O[C@H]1[C@H](O)CN(CCc2c(F)cc(N3CCOCC3)cc2F)C[C@@H]1O [Example 12, (3S,4r,5R)-1-(2,6-difluoro-4-morpholinophenethyl)piperidine-3,4,5-triol]
rat α-glu. (% inhib.) [2]: 4%

IC50 (GBA2 [1]): < 0.1 µM
binding specificity, IC50(other molecule)/IC50(GBA2) or Ki ratio (GBA2 [3]): enhanced binding specificity
Compound: Cc1n[nH]c(C)c1-c1cc(F)c(CCN2C[C@@H](O)[C@H](O)[C@@H](O)C2)c(F)c1 [Example 15, (3S,4r,5R)-1-(4-(3,5-dimethyl-1H-pyrazol-4-yl)-2,6-difluorophenethyl)piperidine-3,4,5-triol]
rat α-glu. (% inhib.) [2]: 8%

IC50 (GBA2 [1]): < 0.1 µM
binding specificity, IC50(other molecule)/IC50(GBA2) or Ki ratio (GBA2 [3]): enhanced binding specificity
Compound: O[C@H]1[C@H](O)CN(CCc2c(F)cc(C3CCOCC3)cc2F)C[C@@H]1O [Example 13, (3S,4r,5R)-1-(2,6-difluoro-4-(tetrahydro-2H-pyran-4-yl)phenethyl)piperidine-3,4,5-triol]
rat α-glu. (% inhib.) [2]: 5%

IC50 (GBA2 [1]): < 0.1 µM
binding specificity, IC50(other molecule)/IC50(GBA2) or Ki ratio (GBA2 [3]): enhanced binding specificity
Compound: O[C@H]1[C@H](O)CN(CCc2c(F)cc(N3CCCC3)cc2F)C[C@@H]1O [Example 10, (3S,4r,5R)-1-(2,6-difluoro-4-(pyrrolidin-1-yl)phenethyl)piperidine-3,4,5-triol]
rat α-glu. (% inhib.) [2]: 7%

IC50 (GBA2 [1]): < 0.1 µM
binding specificity, IC50(other molecule)/IC50(GBA2) or Ki ratio (GBA2 [3]): enhanced binding specificity
Compound: O[C@H]1[C@H](O)CN(C[C@H]2CCCN(c3cccnc3C(F)(F)F)C2)C[C@@H]1O [Example 31, (3S,4R,5R)-1-(((R)-1-(2-(trifluoromethyl)pyridin-3-yl)piperidin-3-yl)methyl)piperidine-3,4,5-triol]
rat α-glu. (% inhib.) [2]: 0%

IC50 (GBA2 [1]): < 0.1 µM
Compound: O[C@H]1[C@H](O)CN(C[C@H]2CCN(c3nc4ccccc4s3)C2)C[C@@H]1O [Example 23, (3S,4R,5R)-1-(((R)-1-(benzo[d]thiazol-2-yl)pyrrolidin-3-yl)methyl)piperidine-3,4,5-triol]
rat α-glu. (% inhib.) [2]: 5%

IC50 (GBA2 [1]): < 0.1 µM
Compound: O[C@H]1[C@H](O)CN(C[C@@H]2CCN(c3cncnc3C(F)(F)F)C2)C[C@@H]1O [Example 26, (3S,4S,5R)-1-(((S)-1-(4-(trifluoromethyl)pyrimidin-5-yl)pyrrolidin-3-yl)methyl)piperidine-3,4,5-triol]
rat α-glu. (% inhib.) [2]: 0%
